Assay results as given in article PMC5249140, “Delineating Substrate Diversity of Disparate Short-Chain Dehydrogenase Reductase from Debaryomyces hansenii” (PLoS ONE, 2017).

B1: DHK (SDR from Debaryomyces hansenii) (Debaryomyces hansenii CBS767) (protein)
chain: MTRTVFVSGASGFIAQNIVKLLIEKGYNVIGTVRTAEKGENLKKCLASEKFTYEIVPDISVEGAFDKVLEKHSEINVLLHTASPFFYDTTDPENDLVLPAINGTKNILKAVKQYGAQIERVVITSSDAAIYSADDEQNSDLSFNESNWNSISYEDAIKDPIAAYYGAKTFAEKAAWDFVKENNSNFKLTAVNPVYVFGPQAFASEVKGKLNTSNELINTLIKLGPSDLFDNDKGGFIDVRDVAKAHVMAFESEDTINKRLYLTNGHFSTQMMLDIVNKNFPELKGKIPIGNPGTGSQDISTLAKMSNDATRQILNFDFNSLEKVVADTVAQILDARKRTL
notes: full-length codon-optimised synthetic gene in pET28a, N-terminal His6 tag kept, E. coli BL21(DE3), ~39 kDa, monomer

Key:
[1] = biological target: T1, DHK (SDR from Debaryomyces hansenii) (Debaryomyces hansenii, UniProt Q6BTD7); assay: differential scanning fluorimetry, SYPRO orange; format: binding; conditions: 50 μM ligand, 2.5 μM enzyme; apo Tm 28.04°C
T1 construct: gene DEHA2D01496g; full-length codon-optimised synthetic gene in pET28a, N-terminal His6 tag kept, E. coli BL21(DE3), ~39 kDa, monomer

[2] = biological target: T2, FabG (β-keto ACP reductase) (Synechococcus elongatus, UniProt Q31QF3); assay: differential scanning fluorimetry, SYPRO orange; format: binding; conditions: 2.5 μM enzyme; apo Tm 58°C, with NADPH 65°C
T2 construct: gene Synpcc7942_0684; codon-optimised synthetic gene in pET28a, N-terminal His6 tag, E. coli BL21(DE3), ~29 kDa
T2 sequence (Q31QF3 entry or part of it): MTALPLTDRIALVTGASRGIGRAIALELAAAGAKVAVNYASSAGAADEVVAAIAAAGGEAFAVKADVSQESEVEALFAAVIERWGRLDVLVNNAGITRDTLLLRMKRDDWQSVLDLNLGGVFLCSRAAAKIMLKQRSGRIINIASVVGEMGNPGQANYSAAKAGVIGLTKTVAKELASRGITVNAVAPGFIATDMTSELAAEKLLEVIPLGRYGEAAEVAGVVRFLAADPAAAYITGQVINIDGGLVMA

purified protein [3] = substrate: NC(=O)C1=CN([C@@H]2O[C@H](COP(=O)(O)OP(=O)(O)OC[C@H]3O[C@@H](n4cnc5c(N)ncnc54)[C@H](OP(=O)(O)O)[C@@H]3O)[C@@H](O)[C@H]2O)C=CC1; assay: purified protein; format: biochemical, Debaryomyces hansenii; conditions: 2 mM ethyl 4-chloro acetoacetate, 100 mM sodium phosphate, 100 mM NaCl, pH 7.4, 25°C, varied: cofactor
purified protein [4] = substrate: CCOC(=O)CC(=O)CCl; assay: purified protein; format: biochemical, Debaryomyces hansenii; conditions: 300 μM NADPH, 100 mM sodium phosphate, 100 mM NaCl, pH 7.4, 25°C

Row | Molecule | ΔTm [1] [°C] | Tm shift [2] [°C] | Km (purified protein [3]) [µM] | Km (purified protein [4]) [µM]
1 | NC(=O)C1=CN([C@@H]2O[C@H](COP(=O)(O)OP(=O)(O)OC[C@H]3O[C@@H](n4cnc5c(N)ncnc54)[C@H](O)[C@@H]3O)[C@@H](O)[C@H]2O)C=CC1 [NADH] | 1.82 |  |  | 
2 | NC(=O)C1=CN([C@@H]2O[C@H](COP(=O)(O)OP(=O)(O)OC[C@H]3O[C@@H](n4cnc5c(N)ncnc54)[C@H](OP(=O)(O)O)[C@@H]3O)[C@@H](O)[C@H]2O)C=CC1 [NADPH] | 6.05 | 7 |  | 
3 | B1 |  |  | 51.09 | 616.1
